Experimental data taken from patent US6600012B1, “Lipid-modified muc-1 derivatives” (Biomira, Inc., priority 1997, dated 2003).
Each block holds one substance with its values, some of them ahead of it.

Experiments:
[1] = tested on: T cells stimulated with autologous PBLs loaded with liposomes containing BLP-25; assay: Cytokine ELISA of supernatant of microtiter wells in the proliferation assay; assay type: cell-based, human; details: soluble peptide, 100 ug; T cells pre-stimulated with BLP-25 liposomes 100 ug; 6th day of culture
Method: T-Cell Proliferation Assay T-cells (5×10^4-1×10^5) obtained at the end of 14-16 days of culture, as described above, were incubated in the presence of various antigen-containing liposomes, soluble BP24, soluble BLP-24M, loaded or unloaded autologous liposomes, and mitomycin C treated APCs (5×10^4-10^5), in a total volume of 200 μL in AIM-V medium, in 96-well flat-bottom tissue culture plates—for a period of 5 days at 37° C., 7% CO2 and moisture. Each group was cultured in 5 replicate wells. At the end of 5 days, 100 μL of culture supernatant was collected from each well and tested for the presence of γ-IFN or IL-4 by ELISA, as described below. After collecting the supernatant for cytokines, 1 μCi^3H-Tdr (Amersham Canada Limited, Oaksville, Ontario) was added into each well and incubated overnight. Incorporation of ^3H-Tdr into DNA of proliferating cells was measured after harvesting the plates and counting in the matrix beta counter. […]
For the γ-IFN assay, 96-well Nunc ELISA plates were coated overnight at 4° C. with mouse anti-human γ-IFN monoclonal antibody (Genzyme, Cambridge, Mass.) in NaHCO3 buffer (0.1 M, pH 9.5). […] At this time, the plates were read in the ELISA reader (Molecular Devices Corporation, Menlo Park, Calif.) in kinetic mode [Molecular Thermomax dual wavelength (405-490 nm)]. […]

[2] = tested on: T-cells from PBLs of normal donors; assay: T-cell proliferation assay (3H-Tdr incorporation) of T-cells stimulated twice with liposomal antigen loaded autologous APCs; assay type: cell-based, human; details: T-cells stimulated twice in two weeks with BLP-25 liposome loaded autologous PBLs; antigen presented on autologous APCs
Method: T-cell Culture in Bulk For T-cell enrichment, 30-50×10^6 PBLs were suspended in 1 mL AIM-V media and loaded on media pre-conditioned 5 mL nylon wool columns (Robins Scientific, Sunnyvale, Calif.). The loaded nylon wool columns were incubated at 37° C. for 45 minutes and then the non-adhering T-cells were eluted by washing with warm (37° C.) AIM-V media. Initially, the bulk culture was started in a 25 cm^2 tissue culture sterile flask (Corning Glass, Corning, N.Y.). 10^7 T-cells were cultured in the presence of 10^7 antigen loaded, gamma-irradiated autologous PBLs in a total volume of 10 mL in AIM-V media for 16-24 hours, at which time the culture was fed with human rIL-7 (10 μg/mL) and human rIL-12 (100 pg/ml), and left for 6-8 more days. At the end of the 7-10 days of culture, surviving t-cells were collected and re-stimulated with autologous APCs loaded with liposomal antigen. After two consecutive cycles of re-stimulation (14-16 days), the T-cells were collected, and counted. The supernatant was collected from bulk cultures at 14 days for cytokine screening and kept frozen at −80° C. until used for the assay. Repeated freeze/thaw was prevented. […] Incorporation of ^3H-Tdr into DNA of proliferating cells was measured after harvesting the plates and counting in the matrix beta counter. […]

MAb BCP8 = assay: Competitive inhibition of binding of MAb BCP8 to class I MHC isolated MUC-1 peptides (ELISA); details: synthetic peptide 0-10 μM; MCF-7 derived fraction (FIG. 9)
Method: Competitive inhibition of binding of MAb BCP8 to class I MHC isolated putative MUC-1 peptide motifs by synthetic MUC-1 peptides. To show the specificity of binding of the BCP8 antibody to the peptides isolated from MCF-7, a fraction eluting at 19 min after secondary HPLC was diluted ⅙ with PBS and coated on microtiter wells overnight, then blocked as described above. The wells were incubated with 2 ng of BCP8 in 100 μl ELISA diluent, containing also amounts of peptide varying from 0-10 μM. Peptides used in this experiment were the 9 mers (SEQ ID NO: 3), […] and […] (SEQ ID NO: 17), and the 16 mer (SEQ ID NO: 15) […]. The ELISA was then processed as described above.

[3] = tested on: T2 cells loaded with MUC-1 synthetic peptides; assay: Cytotoxic T lymphocyte assay (51Cr release) against peptide loaded T2 targets, Example 2; assay type: cell-based, human; details: T-cells of three HLA.A2+ donors primed with liposomal 25 aa MUC-1 lipopeptide, 5 h 51Cr release, peptide 200 μM
Method: Cytotoxic T lymphocyte assays. For the CTL assay, three (HLA.A2^+) normal donors' PBLs were used. The T-cells were grown for two weeks in bulk cultures as described above. At the end of two weeks, live T-cells were harvested from flasks and counted. T2 cells used as CTL targets were loaded overnight with various MUC-1 synthetic peptides at 200 μM in presence of exogenous β2m. Houbiers et al., Eur. J. Immunol 23:2072-2077 (1993); Stauss et al., Proc. Natl. Acad. Sci. U.S.A. 89:7871-7875 (1992). These peptide loaded T2 target cells were then loaded with ^51Cr (using NaCrO4) for 90 min and washed extensively. CTL assays were performed as previously described. Agrawal et al., supra. Percent specific killing was calculated as: experimental release—spontaneous release/maximum release—spontaneous release×100. The effector versus target ratio was used as (1, 10, 50, 100 and 150). Each group was set up in four replicate and mean percent specific killing was calculated. As negative control OVA peptide […] loaded target T2 cells were used in the cytotoxic assay and percent specific killing of […] loaded targets was subtracted from each data point to obtain MUC-1 peptide specific percent specific killing.
We performed in vitro CTL assays in order to determine whether the MUC-1 peptides shown to be capable of binding to HLA.A2 on T2 mutant cells can be recognized as CTL epitopes in the context of MHC class I HLA.A2 molecules on target cells. T-cells from PBLs of three HLA.A2^+ donors were primed in vitro against MUC-1 antigen using a lipopeptide derivative of 25 amino acid MUC-1 peptide encapsulated in liposome pulsed autologous PBLs as APCs. The stimulated T-cells were harvested following two weeks in vitro culture (with 2 weekly restimulations) and tested for their cytotoxic activity against MUC-1 derived synthetic peptide (9 mers and 7 mer) loaded T2 cells as target in a 5 h ^51Cr release assay (FIG. 6). […] The targets loaded with 7 mer TSA . . . peptide were weakly killed by donor 2 at higher E/T ratios.

[4] = biological target: T1, HLA.A2 on T2 mutant cells (Homo sapiens, UniProt P04439, D140Y/D185E/D98H/E176V/E277Q/G131W/G231S/I119V/I121R/I166T/I218V/L300P/L318F/N151K/N90K/P208A/P217A/Q86G/Q94H/R138H/R169H/T345S); assay: T2 feeding experiment and FACS analysis (HLA.A2 upregulation, MA2.1 staining), Example 2; assay type: cell-based
[5] = biological target: T1, HLA.A2 on T2 mutant cells; assay: MUC-1 peptide-mediated upregulation of HLA.A2 expression on T2 cells, Example 1; assay type: cell-based; details: FIG. 6A
Excerpt: FIG. 6A: Upregulation of HLA.A2 expression on T2 mutant cells by MUC-1 peptides […] (SEQ ID NO: 1) and […] (SEQ ID NO: 2). […] was used as a positive control (SEQ ID NO: 1) and H-2Kb (61-69) peptide (SEQ ID NO: 3) was used as negative control for HLA-A2 upregulation. The x-axis represents fluorescence intensity and the y-axis represents the cell number. Markers M1 and M2 were set to visually examine the increase expression of HLA.A2. Mean channel intensity (MCI) is shown in each histogram.
Cytotoxic T lymphocyte assays. For the CTL assay, three (HLA.A2^+) normal donors' PBLs were used. The T-cells were grown for two weeks in bulk cultures as described above. At the end of two weeks, live T-cells were harvested from flasks and counted. The targets were mutant T2 cells. Houbiers et al., Eur. J. Immunol 23:2072-2077 (1993); Stauss et al., Proc. Natl. Acad. Sci. U.S.A. 89:7871-7875 (1992). The MUC-1 peptide-mediated upregulation of HLA.A2 expression on T2 cells was examined using the MUC-1 nine-mer peptides (SEQ ID NO: 25) […] and […] using known methods. Townsend et al., Nature 346:476 (1989). […] Percent specific killing was calculated as: experimental release—spontaneous release/maximum release—spontaneous release×100. […] Each group was set up in four replicate and mean percent specific killing was calculated.

Substance: DSTSSPVHSGTSSPATSAPEDSTS [BP-24M, mouse MUC-1, 24-amino acid peptide, control]
IFN-γ (pg/ml) ± S.D. [1]: 193 ± 79 pg/mL | IL-4 (pg/ml) ± S.D. [1]: <31.00 pg/mL | T-cell proliferative response against the test antigen [2]: no proliferative T-cell response

Substance: SIINFEKL [8-mer ovalbumin (OVA) peptide, negative control in CTL assay, reference compound]
upregulation of HLA.A2 expression on T2 cells [5]: strongly upregulates HLA.A2 expression

Substance: STAPPAHGV
upregulation of HLA.A2 expression on T2 cells [5]: higher upregulation of HLA.A2 expression on T2 cells than did

Substance: TSAPDTR [MUC-1 7 mer, class I-associated peptide]
specific killing of T2 targets loaded with the peptide [3]: weakly killed | δMCI, HLA.A2 expression on T2 cell surface ([4]; peptide in excess at 50 μM/well): 2

Substance: TSAPDTRPA [MUC-1 tandem repeat 9 mer]
specific killing of T2 targets loaded with the peptide [3]: performed exceptionally well | specific killing of T2 targets loaded with the peptide ([3]; listed as 9 mers TSA . . .): specifically killed to the highest degree | upregulation of class I expression on T2 cells ([4]; FIG. 11 and repeat experiments): strong upregulation of class I expression

More lines, main results first:

inhibition of binding of BCP8 to the isolated MUC-1 peptides (MAb BCP8): did not inhibit binding
Substance: GVTSAPDTR [MUC-1 tandem repeat 9 mer]

% Change in mean channel intensity ([4]; T2 cell assay, HLA.A2 expression (MA2.1 staining)): 48%
Substance: SAPDTRPAP [MUC-1 tandem repeat 9 mer]
specific killing of T2 targets loaded with the peptide [3]: specifically killed to the highest degree
